Laboratory results: paper PMC9250534, “Synthesis and direct assay of large macrocycle diversities by combinatorial late-stage modification at picomole scale” (Nature Communications, 2022)
Numbered stars: 1 amine (or outer) side, 2 acyl side, 3 side chain; on linkers, the order of the positions; unused ones are H or OH. Bridge positions count the residues as written; N and C are the ends. Square brackets hold non-standard residues; d marks the D form. Peptide text beside a SMILES is read from it. * marks the point of attachment. 2Thenoyl(5-Cl) = O=C(c1ccc(Cl)s1)*; Benzoyl(4-Cl) = O=C(c1ccc(Cl)cc1)*; Cysteamide = C(CS[*:3])N[*:1]; X1 = O=C(/C=C/c1ccccc1)*; Api = NC1(C(=O)O)CCNCC1; Dap = NC[CH](N)C(=O)O; Mpa = O=C(O)CCS

Molecular target: MDM2 (Homo sapiens, UniProt Q00987)
Assay: MDM2 binding screen: displacement of fluorescent p53 peptide probe FP53 (fluorescence polarization)
Conditions: for fraction fluorescent probe displaced, Screen: initial screen; for fraction fluorescent probe displaced, Screen / fraction fluorescent probe displaced, Replicate: crude macrocycle reactions; for fraction fluorescent probe displaced: crude reaction of macrocycle scaffold with Acid 14
In short: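 Single-point screen: one fluorescence anisotropy reading at 25 °C (485 nm excitation, 535 nm emission) per macrocycle. Crude macrocycle reactions, final 10 µM, were scored for displacing the fluorescent p53 peptide from human MDM2.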

Sequence of MDM2 (Q00987 whole entry): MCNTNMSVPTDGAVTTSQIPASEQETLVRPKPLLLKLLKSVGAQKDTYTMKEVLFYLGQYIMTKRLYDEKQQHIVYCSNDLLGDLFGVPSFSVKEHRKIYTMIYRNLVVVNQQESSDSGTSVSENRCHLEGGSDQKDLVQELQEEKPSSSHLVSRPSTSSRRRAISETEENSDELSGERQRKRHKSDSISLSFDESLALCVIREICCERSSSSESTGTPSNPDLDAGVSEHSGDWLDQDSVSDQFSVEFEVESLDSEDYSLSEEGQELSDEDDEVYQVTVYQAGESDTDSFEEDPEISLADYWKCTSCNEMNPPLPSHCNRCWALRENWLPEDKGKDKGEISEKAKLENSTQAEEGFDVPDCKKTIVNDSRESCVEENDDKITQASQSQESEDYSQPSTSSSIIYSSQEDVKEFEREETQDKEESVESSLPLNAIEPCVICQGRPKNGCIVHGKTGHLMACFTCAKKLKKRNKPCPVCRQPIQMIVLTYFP

Structure (SMILES) | fraction fluorescent probe displaced, Screen (Acid 91) | fraction fluorescent probe displaced, Replicate (Acid 91, replicate) | fraction fluorescent probe displaced, Screen (Acid 25) | fraction fluorescent probe displaced, Replicate (Acid 25, replicate) | other results
O=C1CCSSCCNC(=O)c2cccc(c2)CNC(=O)C(Cc2c[nH]c3ccccc23)NC(=O)C2(CCN(C(=O)c3ccc(Cl)s3)CC2)N1 (stereo not drawn) [X D6 W B5 Acid 14] | – | – | – | – | fraction fluorescent probe displaced, Screen (Acid 14): 0.11; fraction fluorescent probe displaced, Replicate (Acid 14, replicate): 0.25
O=C1CCSSCCNC(=O)c2cccc(c2)CNC(=O)[C@H](Cc2c[nH]c3ccccc23)NC(=O)C2(CCN(C(=O)/C=C/c3ccccc3)CC2)N1 [X D6 W B5 Acid 91] | -0.05 | 0.07 | – | – | –
O=C1NCCSSCCC(=O)N2CCN(C(=O)c3ccc(Cl)cc3)CC2C(=O)N2CCCC2C(=O)NC1Cc1ccccc1 (stereo not drawn) [X D7 B1 F Acid 25] | – | – | 0.0569 | 0.12 | –
O=C1NCCSSCCC(=O)N2CCN(C(=O)c3ccc(Cl)s3)CC2C(=O)N2CCCC2C(=O)NC1Cc1c[nH]c2ccccc12 (stereo not drawn) [X D7 B1 W Acid 14] | – | – | – | – | fraction fluorescent probe displaced, Screen (Acid 14): -0.00483; fraction fluorescent probe displaced, Replicate (Acid 14, replicate): 0.07
O=C1CCNC(=O)C2CN(C(=O)c3ccc(Cl)s3)CCN2C(=O)CCSSCCNC(=O)C(Cc2c[nH]c3ccccc23)N1 (stereo not drawn) [X D7 B2 W Acid 14] | – | – | – | – | fraction fluorescent probe displaced, Screen (Acid 14): 0.11; fraction fluorescent probe displaced, Replicate (Acid 14, replicate): 0.12
O=C1CCNC(=O)C2CN(C(=O)C=Cc3ccccc3)CCN2C(=O)CCSSCCNC(=O)C(Cc2c[nH]c3ccccc23)N1 (stereo not drawn) [X D7 B2 W Acid 91] | 0.11 | 0.07 | – | – | –
O=C1NC(Cc2ccccc2)C(=O)NCCSSCCC(=O)N2CCN(C(=O)c3ccc(Cl)s3)CC2C(=O)N2CCCC1C2 (stereo not drawn) [X D7 B4 F + Acid 14] | – | – | – | – | fraction fluorescent probe displaced ((initial screen)): -0.0337; fraction fluorescent probe displaced (replicate): 0.07
O=C1NC(Cc2c[nH]c3ccccc23)C(=O)NCCSSCCC(=O)N2CCN(C(=O)C=Cc3ccccc3)CC2C(=O)N2CCCC1C2 (stereo not drawn) [X D7 B4 W Acid 91] | 0.08 | 0.07 | – | – | –
O=C1NC(Cc2ccccc2)C(=O)NCCSSCCC(=O)N2CCN(C(=O)c3ccc(Cl)cc3)CC2C(=O)NCc2cccc1c2 (stereo not drawn) [X D7 B5 F Acid 25] | – | – | -0.04 | 0.12 | –
O=C1NC(Cc2c[nH]c3ccccc23)C(=O)NCCSSCCC(=O)N2CCN(C(=O)c3ccc(Cl)cc3)CC2C(=O)NCc2cccc1c2 (stereo not drawn) [X D7 B5 W Acid 25] | – | – | 0.22 | 0.20 | –
O=C1NC(Cc2ccccc2)C(=O)N2CCCC2C(=O)NCCSSCCC(=O)N2CCN(C(=O)c3ccc(Cl)cc3)CC12 (stereo not drawn) [X D7 F B1 Acid 25] | – | – | 0.09 | 0.07 | –
O=C1CCNC(=O)C(Cc2ccccc2)NC(=O)C2CN(C(=O)c3ccc(Cl)cc3)CCN2C(=O)CCSSCCN1 (stereo not drawn) [X D7 F B2 Acid 25] | – | – | -0.00813 | 0.07 | –
O=C1NCCSSCCC(=O)N2CCN(C(=O)c3ccc(Cl)s3)CC2C(=O)NC(Cc2ccccc2)C(=O)N2CCCC1C2 (stereo not drawn) [X D7 F B4 + Acid 14] | – | – | – | – | fraction fluorescent probe displaced ((initial screen)): 0.0241; fraction fluorescent probe displaced (replicate): -0.00432
O=C1NCCSSCCC(=O)N2CCN(C(=O)c3ccc(Cl)cc3)CC2C(=O)NC(Cc2ccccc2)C(=O)NCc2cccc1c2 (stereo not drawn) [X D7 F B5 Acid 25] | – | – | 0.12 | 0.43 | –
O=C1NCCSSCCC(=O)N2CCN(C(=O)C=Cc3ccccc3)CC2C(=O)NC(Cc2ccccc2)C(=O)NCc2cccc1c2 (stereo not drawn) [X D7 F B5 Acid 91] | 0.0563 | 0.04 | – | – | –
O=C1NC(Cc2c[nH]c3ccccc23)C(=O)N2CCCC2C(=O)NCCSSCCC(=O)N2CCN(C(=O)C=Cc3ccccc3)CC12 (stereo not drawn) [X D7 W B1 Acid 91] | -0.0241 | -0.00827 | – | – | –
O=C1CCNC(=O)C(Cc2c[nH]c3ccccc23)NC(=O)C2CN(C(=O)c3ccc(Cl)s3)CCN2C(=O)CCSSCCN1 (stereo not drawn) [X D7 W B2 Acid 14] | – | – | – | – | fraction fluorescent probe displaced, Screen (Acid 14): 0.11; fraction fluorescent probe displaced, Replicate (Acid 14, replicate): 0.10
O=C1CCNC(=O)C(Cc2c[nH]c3ccccc23)NC(=O)C2CN(C(=O)c3ccc(Cl)cc3)CCN2C(=O)CCSSCCN1 (stereo not drawn) [X D7 W B2 Acid 25] | – | – | 0.22 | 0.17 | –

Structure (SMILES) | fraction fluorescent probe displaced, Screen (Acid 91) | fraction fluorescent probe displaced, Replicate (Acid 91, replicate) | fraction fluorescent probe displaced, Screen (Acid 25) | fraction fluorescent probe displaced, Replicate (Acid 25, replicate) | other results
O=C1NCCSSCCC(=O)N2CCN(C(=O)C=Cc3ccccc3)CC2C(=O)NC(Cc2c[nH]c3ccccc23)C(=O)N2CCCC1C2 (stereo not drawn) [X D7 W B4 Acid 91] | 0.03 | 0.04 | – | – | –
O=C1CCSSCCNC(=O)C(CNC(=O)c2ccc(Cl)s2)NC(=O)C2CCCN2C(=O)C(Cc2ccccc2)N1 (stereo not drawn) [X F B1 D3 Acid 14] ([Mpa]FP[Dap](2Thenoyl(5-Cl))-Cysteamide; disulfide 1-C; configuration not given here) | – | – | – | – | fraction fluorescent probe displaced, Screen (Acid 14): 0.17; fraction fluorescent probe displaced, Replicate (Acid 14, replicate): 0.07
O=C1CCSSCCNC(=O)C(CNC(=O)c2ccc(Cl)cc2)NC(=O)C2CCCN2C(=O)C(Cc2ccccc2)N1 (stereo not drawn) [X F B1 D3 Acid 25] ([Mpa]FP[Dap](Benzoyl(4-Cl))-Cysteamide; disulfide 1-C; configuration not given here) | – | – | 0.12 | 0.22 | –
O=C(/C=C/c1ccccc1)NC[C@@H]1NC(=O)[C@@H]2CCCN2C(=O)[C@H](Cc2ccccc2)NC(=O)CCSSCCNC1=O [X F B1 D3 Acid 91] ([Mpa]FP[Dap](X1)-Cysteamide; disulfide 1-C) | 0.08 | 0.04 | – | – | –
O=C1CCSSCCNC(=O)C2(CCN(C(=O)c3ccc(Cl)cc3)CC2)NC(=O)[C@@H]2CCCN2C(=O)[C@H](Cc2ccccc2)N1 [X F B1 D6 Acid 25] ([Mpa]FP[Api](Benzoyl(4-Cl))-Cysteamide; disulfide 1-C) | – | – | 0.22 | 0.10 | –
O=C1CCSSCCNC(=O)C2(CCN(C(=O)/C=C/c3ccccc3)CC2)NC(=O)[C@@H]2CCCN2C(=O)[C@H](Cc2ccccc2)N1 [X F B1 D6 Acid 91] ([Mpa]FP[Api](X1)-Cysteamide; disulfide 1-C) | -0.05 | 0.0168 | – | – | –
O=C1CCNC(=O)[C@H](Cc2ccccc2)NC(=O)CCSSCCNC(=O)[C@H](CNC(=O)c2ccc(Cl)s2)N1 [X F B2 D3 Acid 14] | – | – | – | – | fraction fluorescent probe displaced, Screen (Acid 14): 0.14; fraction fluorescent probe displaced, Replicate (Acid 14, replicate): 0.12
O=C1CCNC(=O)C(Cc2ccccc2)NC(=O)CCSSCCNC(=O)C(CNC(=O)c2ccc(Cl)cc2)N1 (stereo not drawn) [X F B2 D3 Acid 25] | – | – | 0.22 | 0.17 | –
O=C(/C=C/c1ccccc1)NC[C@@H]1NC(=O)CCNC(=O)[C@H](Cc2ccccc2)NC(=O)CCSSCCNC1=O [X F B2 D3 Acid 91] | 0.03 | 0.04 | – | – | –
O=C1CCSSCCNC(=O)[C@@H]2C[C@H](NC(=O)c3ccc(Cl)s3)CN2C(=O)CCNC(=O)[C@H](Cc2ccccc2)N1 [X F B2 D5 Acid 14] | – | – | – | – | fraction fluorescent probe displaced, Screen (Acid 14): 0.08; fraction fluorescent probe displaced, Replicate (Acid 14, replicate): 0.07
O=C1CCSSCCNC(=O)C2CC(NC(=O)c3ccc(Cl)cc3)CN2C(=O)CCNC(=O)C(Cc2ccccc2)N1 (stereo not drawn) [X F B2 D5 Acid 25] | – | – | 0.12 | 0.07 | –
O=C1CCSSCCNC(=O)C2(CCN(C(=O)c3ccc(Cl)s3)CC2)NC(=O)CCNC(=O)C(Cc2ccccc2)N1 (stereo not drawn) [X F B2 D6 Acid 14] | – | – | – | – | fraction fluorescent probe displaced, Screen (Acid 14): 0.20; fraction fluorescent probe displaced, Replicate (Acid 14, replicate): 0.0465
O=C1CCSSCCNC(=O)C2(CCN(C(=O)c3ccc(Cl)cc3)CC2)NC(=O)CCNC(=O)[C@H](Cc2ccccc2)N1 [X F B2 D6 Acid 25] | – | – | -0.00813 | -0.03 | –
O=C1CCSSCCNC(=O)C2(CCN(C(=O)C=Cc3ccccc3)CC2)NC(=O)CCNC(=O)C(Cc2ccccc2)N1 (stereo not drawn) [X F B2 D6 Acid 91] | 0.0563 | -0.00827 | – | – | –
O=C1CCSSCCNC(=O)C2CN(C(=O)c3ccc(Cl)s3)CCN2C(=O)CCNC(=O)C(Cc2ccccc2)N1 (stereo not drawn) [X F B2 D7 Acid 14] | – | – | – | – | fraction fluorescent probe displaced, Screen (Acid 14): 0.17; fraction fluorescent probe displaced, Replicate (Acid 14, replicate): 0.10
O=C1CCSSCCNC(=O)C2CN(C(=O)c3ccc(Cl)cc3)CCN2C(=O)CCNC(=O)[C@H](Cc2ccccc2)N1 (stereo partly drawn) [X F B2 D7 Acid 25] | – | – | 0.12 | 0.10 | –
O=C1CCSSCCNC(=O)C2CN(C(=O)C=Cc3ccccc3)CCN2C(=O)CCNC(=O)C(Cc2ccccc2)N1 (stereo not drawn) [X F B2 D7 Acid 91] | 0.03 | 0.04 | – | – | –
O=C1CCSSCCNC(=O)[C@H](CNC(=O)c2ccc(Cl)s2)NC(=O)[C@H]2CCCN(C2)C(=O)[C@H](Cc2ccccc2)N1 [X F B4 D3 Acid 14] | – | – | – | – | fraction fluorescent probe displaced, Screen (Acid 14): 0.23; fraction fluorescent probe displaced, Replicate (Acid 14, replicate): 0.17
